Reference: patent EP4786485A1, “STRAIGHT CHAIN PEPTIDE COMPOUND AND USE THEREOF” (Shenzhen Zhongge Biological Technology Co., Ltd., priority 2023, dated 2026)
Where a SMILES comes first, the peptide text is derived from it. [ ]: non-standard residue; d: D form. The star is where a group is joined. Biotin = O=C1N[C@H]2[C@H](CS[C@H]2CCCCC(=O)*)N1; Phe(3,4-Cl2) = N[C@@H](Cc1ccc(Cl)c(Cl)c1)C(=O)O; Lys(Me3) = C[N+](C)(C)CCCC[C@H](N)C(=O)O; Phe(4-Me) = Cc1ccc(C[C@H](N)C(=O)O)cc1; Palmitoyl = CCCCCCCCCCCCCCCC(=O)*; Ahp = NCCCCCCC(=O)O; βAla = NCCC(=O)O

What was measured:
Type in all cases: cell-based, Human
[1] = test system: Elastin (ELN); experiment: ELISA: effect of increasing the content of Elastin in fibroblasts; set-up: Effect of increasing the content of Elastin in the fibroblasts: unit not given here; conditions: 1 µM; for Effect of increasing the content of Elastin in the fibroblasts: 24 h incubation, ELISA, blank control (BC) 756.52; for increase in the content of Elastin: in words, compared to the BC, 24 h, fibroblasts
Procedure: (§1) B. Effects of increasing the contents of Collagen I (type I collagen), hyaluronic acid (HA), and Elastin (ELN) in fibroblasts
(§2) Test materials: Human-derived fibroblasts (Guangdong BioCell Biotechnology Co., Ltd., Lot No. Fb20081902), DMEM culture medium (Gibco, 23042301, expiration date 230522), PBS (Solarbio, P1010), TGF-β1 (Peprotech, 230504), Collagen I ELISA Kit (Cusabio, B21025824), Elastin ELISA Kit (Abcam, GR3446070-2), HA ELISA Kit (RD, P325066), CO2 incubator (Thermo, 150I), super-clean bench (AIRTECH, SW-CJ-1F), and microplate reader (BioTek, Epoch).
(§3) Test methods: • 1) Inoculation: After cell resuscitation, the cells were inoculated into 6-well plates when the plating rate reached around 60%, and were incubated overnight in an incubator (37°C, 5% CO2). • 2) Formulation of solutions: The linear peptide compounds in the sample groups, and PC2 (Biotinoyl-GHK, [drawing 69] ) and PC3 ( [drawing 70] ) in the positive control group were all at the concentration of 1 µM, and the test substance working solutions were formulated. • 3) Administration: When the cell plating rate in the 6-well plates reached 40% to 60%, administration was performed at 2 mL per well. Three duplicate wells were set for each group. Incubation was performed in an incubator (37°C, 5% CO2) for 24 h. • 4) ELISA assay: The ELISA assays were performed according to the instructions of the respective ELISA kits, with the detection indicators being effect of increasing the content of Collagen I in the fibroblasts, effect of increasing the content of HA in the fibroblasts, and effect of increasing the content of Elastin in the fibroblasts, respectively.

[2] = test system: Collagen I (type I collagen); experiment: ELISA: effect of increasing the content of Collagen I in fibroblasts; set-up: Effect of increasing the content of Collagen I in the fibroblasts: unit not given here; conditions: 1 µM, 24 h; for Effect of increasing the content of Collagen I in the fibroblasts: human-derived fibroblasts, ELISA, blank control BC = 35.6; for increase in the content of type I collagen (Collagen I): in words, compared to the BC, fibroblasts
Procedure: as §1, §2, §3

[3] = test system: hyaluronic acid (HA); experiment: ELISA: effect of increasing the content of HA in fibroblasts; set-up: Effect of increasing the content of HA in the fibroblasts: unit not given here; conditions: 1 µM, 24 h; for Effect of increasing the content of HA in the fibroblasts: human-derived fibroblasts, ELISA, blank control BC = 1402.44; for increase in the content of hyaluronic acid (HA): in words, compared to the BC, fibroblasts
Procedure: as §1, §2, §3

CNC(=O)[C@H](CCCCN)NC(=O)[C@H](Cc1c[nH]cn1)NC(=O)CNC(=O)CCCCCCNC(=O)[C@H](CCCCN)NC(=O)[C@H](Cc1c[nH]cn1)NC(=O)CNC(C)=O [compound 6] (Ac-GHK[Ahp]GHK-NHMe)
Effect of increasing the content of Elastin in the fibroblasts [1]: 1070.92
increase in the content of Elastin [1]: significant increase
Effect of increasing the content of Collagen I in the fibroblasts [2]: 44.54
increase in the content of type I collagen (Collagen I) [2]: significant increase

CNC(=O)[C@H](CCCCN)NC(=O)[C@H](Cc1c[nH]cn1)NC(=O)CNC(=O)CCNC(=O)CCNC(=O)[C@H](CCCCN)NC(=O)[C@H](Cc1c[nH]cn1)NC(=O)CNC(C)=O [compound 21] (Ac-GHK[βAla][βAla]GHK-NHMe)
Effect of increasing the content of Elastin in the fibroblasts [1]: 1160.14
increase in the content of Elastin [1]: significant increase
Effect of increasing the content of HA in the fibroblasts [3]: 2423.11
increase in the content of hyaluronic acid (HA) [3]: significant increase

CNC(=O)[C@H](CCCCN)NC(=O)[C@H](Cc1c[nH]cn1)NC(=O)CNC(=O)[C@H](C)NC(=O)[C@H](C)NC(=O)[C@H](C)NC(=O)[C@H](CCCCN)NC(=O)[C@H](Cc1c[nH]cn1)NC(=O)CNC(C)=O [compound 23] (Ac-GHKAAAGHK-NHMe)
Effect of increasing the content of Elastin in the fibroblasts [1]: 1097.64
increase in the content of Elastin [1]: significant increase
Effect of increasing the content of Collagen I in the fibroblasts [2]: 46.06
increase in the content of type I collagen (Collagen I) [2]: significant increase
Effect of increasing the content of HA in the fibroblasts [3]: 2533.64
increase in the content of hyaluronic acid (HA) [3]: significant increase

CNC(=O)CNC(=O)[C@H](Cc1c[nH]cn1)NC(=O)[C@H](CCCCN)NC(=O)CCNC(=O)CCNC(C)=O [compound 76] (Ac-[βAla][βAla]KHG-NHMe)
Effect of increasing the content of Elastin in the fibroblasts [1]: 1061.55
increase in the content of Elastin [1]: significant increase
Effect of increasing the content of Collagen I in the fibroblasts [2]: 47.05
increase in the content of type I collagen (Collagen I) [2]: significant increase
Effect of increasing the content of HA in the fibroblasts [3]: 2607.31
increase in the content of hyaluronic acid (HA) [3]: significant increase

CNC(=O)CNC(=O)[C@H](Cc1c[nH]cn1)NC(=O)[C@H](CCCCN)NC(=O)CCCCCCNC(C)=O [compound 77] (Ac-[Ahp]KHG-NHMe)
Effect of increasing the content of Elastin in the fibroblasts [1]: 1093.49
increase in the content of Elastin [1]: significant increase
Effect of increasing the content of Collagen I in the fibroblasts [2]: 89.94
increase in the content of type I collagen (Collagen I) [2]: significant increase
Effect of increasing the content of HA in the fibroblasts [3]: 3493
increase in the content of hyaluronic acid (HA) [3]: significant increase

CCCCCCCCCCCCCCCC(=O)NCCCCCCC(=O)N[C@@H](CCCCN)C(=O)N[C@@H](Cc1c[nH]cn1)C(=O)NCC(=O)O [compound 224] ({Palmitoyl-Ahp}-Lys-His-Gly-OH)
Effect of increasing the content of Elastin in the fibroblasts [1]: 932.65
increase in the content of Elastin [1]: significant increase
Effect of increasing the content of Collagen I in the fibroblasts [2]: 56.19
increase in the content of type I collagen (Collagen I) [2]: significant increase

CCCCCCCCCCCCCCCC(=O)N[C@@H](CCCC[N+](C)(C)C)C(=O)N[C@@H](C)C(=O)N[C@@H](C)C(=O)N[C@@H](C)C(=O)NCC(=O)N[C@@H](Cc1c[nH]cn1)C(=O)N[C@@H](CCCCN)C(=O)O [compound 234] (Palmitoyl-[Lys(Me3)]AAAGHK-OH)
Effect of increasing the content of Elastin in the fibroblasts [1]: 900.83
increase in the content of Elastin [1]: significant increase
Effect of increasing the content of Collagen I in the fibroblasts [2]: 49.53
increase in the content of type I collagen (Collagen I) [2]: significant increase
Effect of increasing the content of HA in the fibroblasts [3]: 2356.91
increase in the content of hyaluronic acid (HA) [3]: significant increase

NCCCC[C@H](NC(=O)CCCCCCNC(=O)CCCC[C@@H]1SC[C@@H]2NC(=O)N[C@@H]21)C(=O)N[C@@H](Cc1c[nH]cn1)C(=O)NCC(N)=O [compound 242] ({Biotin-Ahp}-Lys-His-Gly-NH2)
Effect of increasing the content of Elastin in the fibroblasts [1]: 1159.72
increase in the content of Elastin [1]: significant increase
Effect of increasing the content of Collagen I in the fibroblasts [2]: 70.24
increase in the content of type I collagen (Collagen I) [2]: significant increase

C[N+](C)(C)CCCC[C@H](NC(=O)CCCC[C@@H]1SC[C@@H]2NC(=O)N[C@@H]21)C(=O)NCCCCCCC(=O)NCC(=O)N[C@@H](Cc1c[nH]cn1)C(=O)N[C@@H](CCCCNC(=O)[C@@H]1CCCN1)C(N)=O [compound 265] (Biotin-[Lys(Me3)][Ahp]GHK(Pro)-NH2)
Effect of increasing the content of Elastin in the fibroblasts [1]: 1008.26
increase in the content of Elastin [1]: significant increase
Effect of increasing the content of Collagen I in the fibroblasts [2]: 56.34
increase in the content of type I collagen (Collagen I) [2]: significant increase

CNC(=O)CNC(=O)[C@H](Cc1c[nH]cn1)NC(=O)[C@H](CCCCN)NC(=O)[C@@H]1CCCN1C(=O)[C@@H]1CCCN1C(=O)[C@@H]1CCCN1C(C)=O [compound 286] (Ac-PPPKHG-NHMe)
Effect of increasing the content of Elastin in the fibroblasts [1]: 1096.59
increase in the content of Elastin [1]: significant increase
Effect of increasing the content of Collagen I in the fibroblasts [2]: 53.24
increase in the content of type I collagen (Collagen I) [2]: significant increase
Effect of increasing the content of HA in the fibroblasts [3]: 2791.21
increase in the content of hyaluronic acid (HA) [3]: significant increase

CCCCCCCCCCCCCCCC(=O)N1CCC[C@H]1C(=O)N1CCC[C@H]1C(=O)N1CCC[C@H]1C(=O)NCC(=O)N[C@@H](Cc1c[nH]cn1)C(=O)N[C@@H](CCCCN)C(=O)O [compound 294] (Palmitoyl-PPPGHK-OH)
Effect of increasing the content of Elastin in the fibroblasts [1]: 1037.26
increase in the content of Elastin [1]: significant increase
Effect of increasing the content of Collagen I in the fibroblasts [2]: 91.47
increase in the content of type I collagen (Collagen I) [2]: significant increase
Effect of increasing the content of HA in the fibroblasts [3]: 1761.46
increase in the content of hyaluronic acid (HA) [3]: significant increase

NCCCC[C@H](NC(=O)[C@H](Cc1c[nH]cn1)NC(=O)CNC(=O)[C@@H]1CCCN1C(=O)[C@@H]1CCCN1C(=O)[C@@H]1CCCN1C(=O)CCCC[C@@H]1SC[C@@H]2NC(=O)N[C@@H]21)C(N)=O [compound 296] (Biotin-PPPGHK-NH2)
Effect of increasing the content of Elastin in the fibroblasts [1]: 930.98
increase in the content of Elastin [1]: significant increase
Effect of increasing the content of Collagen I in the fibroblasts [2]: 88.1
increase in the content of type I collagen (Collagen I) [2]: significant increase
Effect of increasing the content of HA in the fibroblasts [3]: 1686.42
increase in the content of hyaluronic acid (HA) [3]: significant increase

CNC(=O)[C@H](Cc1ccc(C)cc1)NC(=O)[C@H](C)NC(=O)[C@H](CCCCN)NC(=O)[C@H](Cc1c[nH]cn1)NC(=O)CNC(=O)[C@H](CCCC[N+](C)(C)C)NC(C)=O [compound 337] (Ac-[Lys(Me3)]GHKA[Phe(4-Me)]-NHMe)
Effect of increasing the content of Elastin in the fibroblasts [1]: 1320.95
increase in the content of Elastin [1]: significant increase
Effect of increasing the content of Collagen I in the fibroblasts [2]: 95.66
increase in the content of type I collagen (Collagen I) [2]: significant increase
Effect of increasing the content of HA in the fibroblasts [3]: 2421.21
increase in the content of hyaluronic acid (HA) [3]: significant increase

CNC(=O)[C@H](Cc1ccc(Cl)c(Cl)c1)NC(=O)[C@H](C)NC(=O)[C@H](CCCCN)NC(=O)[C@H](Cc1c[nH]cn1)NC(=O)CNC(=O)[C@H](CCCC[N+](C)(C)C)NC(C)=O [compound 338] (Ac-[Lys(Me3)]GHKA[Phe(3,4-Cl2)]-NHMe)
Effect of increasing the content of Elastin in the fibroblasts [1]: 1060.72
increase in the content of Elastin [1]: significant increase
Effect of increasing the content of Collagen I in the fibroblasts [2]: 89.07
increase in the content of type I collagen (Collagen I) [2]: significant increase
Effect of increasing the content of HA in the fibroblasts [3]: 1913.07
increase in the content of hyaluronic acid (HA) [3]: significant increase

C[C@H](NC(=O)[C@H](Cc1ccc(Cl)c(Cl)c1)NC(=O)CCCC[C@@H]1SC[C@@H]2NC(=O)N[C@@H]21)C(=O)N[C@@H](CCCCN)C(=O)N[C@@H](Cc1c[nH]cn1)C(=O)NCC(=O)N[C@@H](CCCC[N+](C)(C)C)C(N)=O [compound 419] (Biotin-[Phe(3,4-Cl2)]AKHG[Lys(Me3)]-NH2)
Effect of increasing the content of Elastin in the fibroblasts [1]: 1015.58
increase in the content of Elastin [1]: significant increase
Effect of increasing the content of Collagen I in the fibroblasts [2]: 109.96
increase in the content of type I collagen (Collagen I) [2]: significant increase

CCCCCCCCCCCCCCCC(=O)N[C@@H](CCCC[N+](C)(C)C)C(=O)NCC(=O)N[C@@H](Cc1c[nH]cn1)C(=O)N[C@@H](CCCCN)C(=O)N[C@@H](C)C(=O)N[C@@H](Cc1ccc(C)cc1)C(=O)O [compound 424] (Palmitoyl-[Lys(Me3)]GHKA[Phe(4-Me)]-OH)
Effect of increasing the content of Elastin in the fibroblasts [1]: 897.36
increase in the content of Elastin [1]: significant increase
Effect of increasing the content of Collagen I in the fibroblasts [2]: 97.9
increase in the content of type I collagen (Collagen I) [2]: significant increase
